Data set [1] in a line: Safety index (ED50 of mydriatic activity / ID50 of Anti-SGM). Also on record: species or system male Wistar strain rats. Conditions: rat, in vivo, po. The protocol: This effect was examined using male Wistar strain rats, weighing about 250 g, with chronically implanted strain gauge force transducer as mentioned in the experiment (1). The rats were usually allowed to stand for 3-5 days for recovery from the surgery and fasted for 18 hours before experiment. Then, spontaneous gastric motility in conscious rats were recorded and the sum of amplitude of each contraction was calculated every 15 minutes. Inhibitory effect of test compound by oral administration was expressed as a percent inhibition of initial spontaneous motility. ID50 value, i.e., the dose required for 50% inhibition of spontaneous motility, was determined from regression line calculated by the maximum percent inhibition at each dose level.

A further data set is described as follows: Acute lethal toxicity. The following applies: rat, in vivo, po, single oral, 7 days. Set-up: species or system male and female Jcl:SD strain rats.
Data set [2] deals with stomach (contractile response induced by carbachol). The data set can be described thus: Inhibitor effect on contractile response induced by carbachol (Anti-Car). Also on record: species or system male Wistar strain rats. Conditions: Rattus norvegicus, iv; anesthetized rats, carbachol 10 μg/kg, i.v.; read-out: ID50 Anti-Car (antispasmodic activity in vivo). The protocol: (1) Inhibitor effect on contractile response induced by carbachol (Anti-Car)
This effect was examined using the strain gauge force transducer as described by X. B. Pascaud et al. [cf. Am. […] The transducer was sutured on the serosa of the stomach in anesthetized male Wistar strain rats, weighing about 250 g. This transducer can record simultaneously contractions and tone variation of the muscle. The contractile response induced by carbachol (10 μg/kg, i.v.) was estimated before and after administration of test compound. Inhibitory effect of test compound was expressed as a percent inhibition of the response.

Another data set can be described thus: Mydriatic activity. Conditions: rat, in vivo, po.
In data set [3] the test system is section of the ileum (contractile response induced by transmural stimulation). Nature of the data set: Inhibitory effect on contractile response induced by transmural stimulation (Anti-TMS). The format is cell-based, male Hartley strain guinea pig. Conditions: guinea pig ileum, transmural stimulation 5 Hz, 20-30 V, compound applied 20 minutes before; for IC50: Cavia porcellus, read-out: IC50 Anti-TMS (antispasmodic activity in vitro). How it is done:
(1) Inhibitory effect on contractile response induced by transmural stimulation (Anti-TMS)
From male Hartley strain guinea pig, weighing 300-350 g, section of the ileum about 3 cm in length was prepared and mounted in Tyrode's solution kept at 35° C. and oxygenated with 95% O2 --5% CO2, and responses of the ileum were recorded isotonically with an initial tension of 1 g. The ileum was stimulated electrically by the method of W. D. M. Paton [cf. […] The electrode was made of platinum and the intraluminal electrode was used at a frequency of 5 Hz and at a voltage sufficient to give a maximal response (20-30 V). Test compounds were applied 20 minutes before the stimulation.
(§1) In the experiments (1) and (2), each compound was tested in three different concentrations.

Data set [4] relates to spontaneous gastric motility. The data set can be described thus: Inhibitory effect on spontaneous gastric motility (Anti-SGM). Set-up: species or system male Wistar strain rats. Conditions: Rattus norvegicus; conscious rats, fasted 18 hours, oral; read-out: ID50 Anti-SGM (antispasmodic activity in vivo). The protocol:
(2) Inhibitory effect on spontaneous gastric motility (Anti-SGM)
This effect was examined using male Wistar strain rats, weighing about 250 g, with chronically implanted strain gauge force transducer as mentioned in the experiment (1). The rats were usually allowed to stand for 3-5 days for recovery from the surgery and fasted for 18 hours before experiment. Then, spontaneous gastric motility in conscious rats were recorded and the sum of amplitude of each contraction was calculated every 15 minutes. Inhibitory effect of test compound by oral administration was expressed as a percent inhibition of initial spontaneous motility.

Data set [5] has as its system section of the ileum (contractile response induced by acetylcholine). Nature of the data set: Inhibitor effect on contractile response induced by acetylcholine (Anti-ACh). The format is cell-based, male Hartley strain guinea pig. The following applies: guinea pig ileum, acetylcholine 2×10^-8 g/ml, compound applied 2 minutes before; for IC50: Cavia porcellus, read-out: IC50 Anti-ACh (antispasmodic activity in vitro). How it is done:
(2) Inhibitor effect on contractile response induced by acetylcholine (Anti-ACh)
In the same manner as described in the above experiment (1), ileum preparation was prepared and mounted in Tyrode's solution. The response of the ileum to acetylcholine (2×10^-8 g/ml) were recorded isotonically. Test compounds were applied 2 minutes before adding the acetylcholine.
as §1

The nature of a further data set: in vivo. Conditions: rat, po.

In brackets after ≈: the same amount, converted by molar mass. Where a name gives a salt, the structure may show the parent alone. Read-outs that look alike come from different tables or passages of the source.

Source text for in vivo: This activity was examined according to the method of P. Pelewka [cf.

For orientation: LD50 means the dose expected to kill half of the subjects tested. A lower LD50 goes with a more toxic substance. As usually defined, the IC50 is the concentration that inhibits the measured activity by half. Turning to `CC[N+]1(C)CCC(OC(=O)C(c2noc3ccccc23)N2CCCCCC2)CC1.[I-]` (stereo not shown) [Example 17(i), 1-ethyl-1-methyl-4-[2-hexamethyleneimino-2-(1,2-benzisoxazol-3-yl)acetoxy]piperidinium iodide], the selectivity ratio in data set [1] (ED50 of mydriatic activity divided by ID50 of Anti-SGM, read-out: Safety index) is more than 114. Moreover, the LD50 at 168 h worked out at 6320 mg/kg in the data set “Acute lethal toxicity” (female rats) and 5430 mg/kg in the data set “Acute lethal toxicity” (male rats). Moreover, the ED50 in data set [2] was 0.0187 mg/kg; in “Mydriatic activity” it was more than 3000 mg/kg; in data set [4] it was 26.3 mg/kg. For the same molecule, the IC50 in data set [3] was 0.14 µg/mL.

With `CC[N+]1(C)CCC(OC(=O)C(c2noc3ccccc23)N2CCCCCC2)CC1` (stereo not shown) [Example 31], in data set [5], the “IC50 Anti-ACh (antispasmodic activity in vitro)” value was found to be 55 ng/mL. The “IC50 Anti-TMS (antispasmodic activity in vitro)” value (shortened to “IC50 Anti-TMS”) in data set [3] was determined as 120 ng/mL.

Regarding `CC1CCCN(C(C(=O)OC2CC[N+](C)(C)CC2)c2noc3ccccc23)C1` (stereo not shown) [Example 23], the IC50 is 0.036 µg/mL in data set [5] and 0.074 µg/mL in data set [3].

In the case of `C[N+]1(C)CCC(OC(=O)C(c2noc3ccccc23)N2CCCCCC2)CC1.[I-]` (stereo not shown) [Example 20, 1,1-dimethyl-4-[2-hexamethyleneimino-2-(1,2-benzisoxazol-3-yl)acetoxy]piperidinium iodide], the IC50 in data set [5] was 0.02 µg/mL; in data set [3], 0.12 µg/mL.

`C[N+]1(C)CCC(OC(=O)C(c2noc3ccccc23)N2CCCC2)CC1` (stereo not shown) [Example 39]: the IC50 in data set [5] was 0.051 µg/mL; in data set [3], 0.058 µg/mL.

For `CC[N+]1(C)CCC(OC(=O)C(c2noc3ccccc23)N2CCCC2)CC1` (stereo not shown) [Example 33], the IC50 in data set [5] was determined as 0.032 µg/mL; in data set [3], 0.18 µg/mL.

`CN1CCC(OC(=O)C(c2noc3ccccc23)N2CCCCCC2)CC1` (stereo not shown) [Example 16, 1-methyl-4-piperidyl 2-hexamethyleneimino-2-(1,2-benzisoxazol-3-yl)acetate]: the IC50 turned out to be 0.023 µg/mL (≈ 0.0619 µM) in data set [5] and 0.034 µg/mL (≈ 0.0915 µM) in data set [3].

Turning to `CC[N+]1(C)CCC(OC(=O)C(c2noc3ccccc23)N2CCCCCC2)CC1` (stereo not shown) [Example 30], the IC50 in data set [5] is 0.064 µg/mL; in data set [3], 0.18 µg/mL.

As to `C[N+]1(C)CCC(OC(=O)C(c2noc3ccccc23)N2CCCCC2)CC1.[I-]` (stereo not shown) [Example 21, 1,1-Dimethyl-4-[2-piperidino-2-(1,2-benzisoxazol-3-yl)acetoxy]piperidinium iodide], the IC50 in data set [5] is 0.032 µg/mL; in data set [3], 0.09 µg/mL.

For the molecule `C[N+]1(C)CCC(OC(=O)C(c2noc3ccc(Cl)cc23)N2CCCCCC2)CC1` (stereo not shown) [Example 42], the IC50 in data set [5] was found to be 0.078 µg/mL; in data set [3] it was 0.34 µg/mL.

Regarding `CC1CCN(C(C(=O)OC2CC[N+](C)(C)CC2)c2noc3ccccc23)CC1` (stereo not shown) [Example 37], the IC50 stood at 0.072 µg/mL in data set [5] and 0.24 µg/mL in data set [3].

As to `C[N+]1(C)CCC(OC(=O)C(c2noc3ccccc23)N2CCCCCCC2)CC1` (stereo not shown) [Example 27], the IC50 was 0.014 µg/mL in data set [5] and 0.088 µg/mL in data set [3].

For `CCCC[N+]1(C)C2CC(OC(=O)C(CO)c3ccccc3)CC1C1OC12` (stereo not shown) [Scopolamine-N-butyl bromide, scopolamine-N-butyl bromide, reference compound], the ED50 in “in vivo” was found to be 227 mg/kg; in data set [2] it was 0.0201 mg/kg; in data set [4], 100 mg/kg. Further, the IC50 in data set [5] amounted to 0.089 µg/mL; in data set [3] it was 0.44 µg/mL. Moreover, in data set [1], the selectivity ratio amounted to 2.

As to `CN1[C@@H]2CC[C@H]1C[C@@H](OC(=O)C(CO)c1ccccc1)C2` (stereo partly shown) [Atropine sulfate, atropine sulfate, reference compound], the IC50 is 0.005 µg/mL in data set [5] and 0.035 µg/mL in data set [3]. Further, the ED50 in data set [2] amounted to 0.0084 mg/kg; in the data set “Mydriatic activity”, 3.5 mg/kg; in data set [4], 1.7 mg/kg.

For the molecule `C[N+]1(C)CCC(OC(=O)C(c2noc3ccc(F)cc23)N2CCCCCC2)CC1` (stereo not shown) [Example 44], the IC50 was found to be 0.08 µg/mL in data set [5] and 0.29 µg/mL in data set [3].

Take `CC[N+]1(C)CCC(OC(=O)C(c2noc3ccccc23)N2CCCCC2)CC1` (stereo not shown) [Example 34]: the IC50 in data set [5] was found to be 0.033 µg/mL; in data set [3] (20 min), 0.044 µg/mL.

`CCN1CCCC(OC(=O)C(c2noc3ccccc23)N2CCCCCC2)C1` (stereo not shown) [Example 3]: the IC50 in data set [5] amounted to 0.042 µg/mL (≈ 0.109 µM); in data set [3] it was 0.11 µg/mL (≈ 0.285 µM).

In the case of `C[N+]1(C)CCC(OC(=O)C(c2noc3ccccc23)N2CCCCC2)CC1` (stereo not shown) [Example 36], the results for the IC50 in data set [5] and in data set [3] were 0.029 µg/mL and 0.11 µg/mL, respectively.

Turning to `CN1CCCC(OC(=O)C(c2noc3ccccc23)N2CCCCCC2)C1` (stereo not shown) [Example 8], the values for the IC50 in data set [5] and in data set [3] were 0.039 µg/mL (≈ 0.105 µM) and 0.11 µg/mL (≈ 0.296 µM), respectively.

In the case of `C[N+]1(C)CCC(OC(=O)C(c2noc3ccccc23)N2CCCCCC2)CC1` (stereo not shown) [Example 38], the IC50 in data set [5] amounted to 0.024 µg/mL. The “IC50 Anti-TMS” value in data set [3] worked out at 27 ng/mL.

As for `C[N+]1(C)CCCC(OC(=O)C(c2noc3ccccc23)N2CCCCCC2)C1` (stereo not shown) [Example 24], the IC50 was 0.036 µg/mL in data set [5] and 0.1 µg/mL in data set [3].

As to `C[N+]1(C)CCC(OC(=O)C(c2noc3ccccc23)N2CCCCCC2)CC1` (stereo not shown) [Example 28], in data set [5], the “IC50 Anti-ACh (antispasmodic activity in vitro)” value stood at 13 ng/mL. Moreover, the “IC50 Anti-TMS” value in data set [3] turned out to be 100 ng/mL.

For `CC[N+]1(C)CCCC(OC(=O)C(c2noc3ccccc23)N2CCCCCC2)C1` (stereo not shown) [Example 22], the IC50 in data set [5] was 0.022 µg/mL; in data set [3] it was 0.096 µg/mL.

The values above are taken from patent US4447439A, “2-Cyclic amino-2-(1,2-benzisoxazol-3-yl)acetic acid ester derivatives, process for the preparation thereof and composition containing the same” (priority 1981, dated 1984).
